Laboratory results taken from publication PMC2725291, “Genetic and Molecular Basis of Individual Differences in Human Umami Taste Perception” (PLoS ONE, 2009).

Molecular target: T1, TAS1R1-12H-372A/TAS1R3 -757R (Homo sapiens, UniProt Q7RTX0+Q7RTX1, C757R/Q12H)
T1 construct: expressed in transfected cells; host or cells: HEK293
T1 sequence (Q7RTX1 21-841): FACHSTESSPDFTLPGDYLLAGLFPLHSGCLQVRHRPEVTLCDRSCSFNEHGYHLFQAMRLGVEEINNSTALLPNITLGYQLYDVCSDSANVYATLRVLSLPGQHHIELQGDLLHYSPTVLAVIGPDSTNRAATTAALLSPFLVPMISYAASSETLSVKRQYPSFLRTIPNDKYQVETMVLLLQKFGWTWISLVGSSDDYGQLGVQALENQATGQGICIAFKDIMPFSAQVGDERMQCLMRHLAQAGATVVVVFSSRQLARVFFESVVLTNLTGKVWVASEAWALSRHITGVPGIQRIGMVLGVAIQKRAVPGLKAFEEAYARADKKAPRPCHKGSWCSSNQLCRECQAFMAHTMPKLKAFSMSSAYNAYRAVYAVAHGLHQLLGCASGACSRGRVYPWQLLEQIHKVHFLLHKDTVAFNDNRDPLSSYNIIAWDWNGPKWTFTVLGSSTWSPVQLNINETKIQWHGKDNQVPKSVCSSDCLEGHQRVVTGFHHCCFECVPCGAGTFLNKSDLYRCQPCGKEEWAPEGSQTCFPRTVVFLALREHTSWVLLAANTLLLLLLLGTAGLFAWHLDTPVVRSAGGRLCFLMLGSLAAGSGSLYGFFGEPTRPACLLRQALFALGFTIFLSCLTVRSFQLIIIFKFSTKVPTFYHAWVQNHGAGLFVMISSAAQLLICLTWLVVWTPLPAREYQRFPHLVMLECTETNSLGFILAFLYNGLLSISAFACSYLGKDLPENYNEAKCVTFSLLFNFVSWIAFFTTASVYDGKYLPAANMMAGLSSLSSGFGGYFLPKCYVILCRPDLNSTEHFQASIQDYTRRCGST
T1 sequence (Q7RTX0 21-852 C757R): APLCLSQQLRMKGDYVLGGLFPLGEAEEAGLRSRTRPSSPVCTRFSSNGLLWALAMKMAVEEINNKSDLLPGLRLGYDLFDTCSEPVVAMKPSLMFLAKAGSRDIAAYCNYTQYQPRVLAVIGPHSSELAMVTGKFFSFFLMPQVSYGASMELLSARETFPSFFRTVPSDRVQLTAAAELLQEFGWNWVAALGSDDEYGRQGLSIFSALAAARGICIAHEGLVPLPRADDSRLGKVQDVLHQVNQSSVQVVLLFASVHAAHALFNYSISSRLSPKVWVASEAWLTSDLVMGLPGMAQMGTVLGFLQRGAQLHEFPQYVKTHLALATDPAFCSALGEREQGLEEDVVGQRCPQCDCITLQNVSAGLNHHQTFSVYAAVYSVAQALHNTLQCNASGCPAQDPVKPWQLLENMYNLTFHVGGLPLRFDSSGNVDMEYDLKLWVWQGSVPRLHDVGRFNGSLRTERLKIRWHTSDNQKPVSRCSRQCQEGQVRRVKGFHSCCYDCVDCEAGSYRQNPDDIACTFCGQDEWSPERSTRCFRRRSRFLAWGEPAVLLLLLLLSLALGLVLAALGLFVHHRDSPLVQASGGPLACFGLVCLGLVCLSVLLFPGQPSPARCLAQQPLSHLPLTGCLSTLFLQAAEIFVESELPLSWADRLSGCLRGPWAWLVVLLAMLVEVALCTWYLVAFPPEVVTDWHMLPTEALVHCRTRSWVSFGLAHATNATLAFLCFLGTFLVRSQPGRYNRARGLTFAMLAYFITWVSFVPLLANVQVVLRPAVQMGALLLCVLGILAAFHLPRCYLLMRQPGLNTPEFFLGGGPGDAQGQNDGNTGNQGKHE
Assay: Ca2+ imaging in HEK293 cells, Q12H amino acid substitution of TAS1R1
Type: cell-based
Details: vs. TAS1R1-12Q-372A/TAS1R3-757R; Figure S3
Description: Intronless human TAS1Rs and Gαl6 expression constructs were generated in the pEF-DEST51 Gateway vector (Invitrogen) by genomic DNA-based methods. To subclone each gene into the vector, a Kozak cassette was introduced at the 5′ end before the start codon. Gαl6 chimeras were generated by PCR with mutagenic primers. The carboxyl-terminal tail of Gαl6, five-residue (EINLL) was replaced by its counterpart from Gαi3 (ECGLY; Gα16-i3), Gαgust (DCGLF; Gα16-gust), and Gα16-gust44 was generated as described. The integrity of all DNA constructs was confirmed by DNA sequencing. Point mutations in TAS1Rs were made using the same overlapping PCR strategy with mutagenic primers. […]
HEK293 cells were cultured at 37°C under a humidified atmosphere containing 5% CO2 in Dulbecco's modified Eagle's medium supplemented with 10% fetal bovine serum. […] The transfection efficiencies were estimated by visualizing DsRed fluorescence (data not shown) or by immunocytochemistry of TAS1R3, and were typically 50∼55% (Figure S4). […]
Another imaging system, FlexStation II (Molecular Devices) was used for TAS1R mutant analysis. […] Fluorescence changes (excitation at 485 nm, emission at 525 nm, and cutoff at 515 nm) were monitored at 2 sec intervals; 50 µl of HBSS supplemented with 2×tastants were added at 30 sec, and scanning was continued for an additional 120 sec. […]

Q: For `N[C@@H](CCC(=O)O)C(=O)[O-].[Na+]` [MSG, monosodium glutamate], which “effect of the Q12H amino acid mutation of TAS1R1 on responses” value is on record?
A: did not affect
